Where two headings read alike, the source gives them in different places.
Tests used:
[1] = adults taking 200mg daily; upper PK target of Cohort 1; cited from earlier work
[2] = Cohort 1 intensive PK after a single 100 mg doravirine tablet; parameters: species or system adolescents with HIV-1; settings: in vivo, po
HIV-1 = settings: cited from earlier work
[3] = Cohort 2 week 1 intensive PK, DOR FDC once daily; format: in vivo, adolescents with HIV-1; settings: for time at which Cmax occurred: Cohort 2, week 1, oral DOR/3TC/TDF, intensive PK
[4] = Cohort 2 sparse PK weeks 4-24, DOR FDC once daily; format: in vivo, adolescents with HIV-1
[5] = Cohort 1 safety through week 2; format: in vivo, adolescents with HIV-1
CYP3A = settings: cited from earlier work
[6] = parameters: species or system adolescents with HIV-1; settings: in vivo
[7] = in vivo

Compound: Cn1c(Cn2ccc(C(F)(F)F)c(Oc3cc(Cl)cc(C#N)c3)c2=O)n[nH]c1=O [Doravirine]
- geometric AUC0–24hr at steady-state [1]: 64 µM·h
- AUC(0-inf) ([2]; human): 34.8 µM·h
- Tmax, median (range) ([2]; human): 3.78 (1.00–7.75) h
- Vd/F ([2]; human): 115 L
- half-life ([2]; human): 11.8 h
- Tmax ([2]; human, Tmax, median (range)): ~4 h
- Cl/F, geometric mean (geometric CV%) [2]: 6.75 (43) L/h
- lipid levels compared to darunavir/ritonavir (HIV-1): significantly improved lipid levels
- discontinuations due to adverse events (HIV-1; week 48, doravirine plus 2 NRTIs, adults naïve to antiretroviral therapy): < 1%
- virologic response versus darunavir/ritonavir (HIV-1; week 48, plus 2 NRTIs): not inferior
- Cl/F, geometric mean (geometric CV%) ([3]; Cohort 2, week 1, 100 mg daily as DOR FDC, n=10): 10.3 (47) L/h
- C24,ss observed, geometric mean (geometric CV%) ([3]; Cohort 2, week 1, 100 mg daily as DOR FDC, n=10, 8/10 switched from efavirenz): 282 (74) nM
- Tmax ([3]; human, plasma, oral): ~2 h
- Cmax ([3]; human, plasma, po, 100 mg): 2130 nM
- Tmax ([3]; human, plasma, po, 100 mg): 1.95 h
- geometric mean steady state doravirine concentrations ([4]; Cohort 2, all participants, Week 4 through Week 24): > 560 nM
- DOR plasma concentration, geometric mean ([4]; Cohort 2, week 4, predose, N=45, DOR/3TC/TDF once daily): 747 nM
- DOR plasma concentration, geometric mean ([4]; Cohort 2, week 8, random time, N=44, DOR/3TC/TDF once daily): 1320 nM
- DOR plasma concentration, geometric mean ([4]; Cohort 2, week 12, random time, N=44, DOR/3TC/TDF once daily): 2020 nM
- DOR plasma concentration, geometric mean ([4]; Cohort 2, week 24, 0.5–2 hours post dose, N=43, DOR/3TC/TDF once daily): 1870 nM
- DOR plasma concentration, geometric mean ([4]; Cohort 2, week 24, predose, N=43, DOR/3TC/TDF once daily): 1090 nM
- participants who died due to adverse event ([5]; Cohort 1, N=9, 100mg single dose, through week 2): 0 (0) n (%)
- Grade 3 or 4 adverse events ([5]; human, in vivo, 2 weeks): no Grade 3 or 4 adverse events
- participants with at least one Grade 1 or Grade 2 adverse event ([5]; human, in vivo, 2 weeks): 44.4%
- tolerability ([5]; in vivo): well tolerated

Compound: O=C1Nc2ccc(Cl)cc2[C@@](C#CC2CC2)(C(F)(F)F)O1 [efavirenz]
- CYP3A induction (CYP3A): moderate CYP3A inducer

Compound: Nc1ccn([C@@H]2CS[C@H](CO)O2)c(=O)n1 [lamivudine]
- time at which Cmax occurred [3]: ~2 h

Compound: C[C@H](Cn1cnc2c(N)ncnc21)OCP(=O)(O)O [tenofovir]
- time at which Cmax occurred [3]: approximately 1 hour

Compound: doravirine/lamivudine/tenofovir disoproxil fumarate [DOR FDC]
- Alanine Aminotransferase, mean change [95% CI] [6]: 1.2 [−7.3, 9.6] IU/L
- Alkaline Phosphatase, mean change [95% CI] [6]: −20.7 [−35.1, −6.3] IU/L
- Aspartate Aminotransferase, mean change [95% CI] [6]: 0.8 [−5.1, 6.7] IU/L
- Bilirubin, mean change [95% CI] [6]: −0.0 [−0.2, 0.1] mg/dL
- Creatinine, mean change [95% CI] [6]: 0.0 [0.0, 0.1] mg/dL
- HDL Cholesterol, mean change [95% CI] [6]: −11.3 [−15.9, −6.6] mg/dL
- LDL Cholesterol, mean change [95% CI] [6]: −12.5 [−20.7, −4.2] mg/dL
- eGFR from Creatinine Adjusted for BSA, mean change [95% CI] [6]: −6.5 [−15.2, 2.2] mL/min/1.73m^2
- grade 3 diarrhea and gastroenteritis [7]: one participant
- grade 3 increased ALT [7]: one participant
- participants meeting safety endpoint eGFR <60 ml/min/1.73m^2 [7]: No participant
- participants who experienced at least one adverse event [7]: 45 participants
- participants with Grade 1 dizziness assessed as related to the study drug [7]: 2.2%
- participants with concomitant grade 3 increased creatinine [7]: 2
- participants with grade 3 decreased eGFR [7]: Three participants
- participants with no adverse events [7]: 0 (0) n (%)
- participants with one or more Grade 3 or greater adverse events [7]: 9 (20.0) n (%)
- participants with one or more Grade 3 or greater drug-related adverse events [7]: 0 (0) n (%)
- participants with one or more adverse events [7]: 45 (100.0) n (%)
- participants with one or more drug-related adverse events [7]: 1 (2.2) n (%)
- participants with one or more grade 3 adverse events [7]: 20%
- participants with one or more serious adverse events [7]: 1 (2.2) n (%)
- participants with one or more serious drug-related adverse events [7]: 0 (0) n (%)
- tolerability [7]: well tolerated

From PMC9839475 (Journal of acquired immune deficiency syndromes (1999), 2023)
